Assay results from US20240115705A1, “Regulation of Butyrophilin subfamily 3 member A1 (BTN3A1, CD277)” (The J. Gladstone Institutes, a testamentary trust …, priority 2021, published 2024).

System: Daudi-Cas9 cells
Test: Cancer-T cell co-culture genome-wide CRISPR knockout screen (Vγ9Vδ2 T cell killing)
Format: cell-based, human
Conditions: for score: MAGeCK sgRNA test, co-culture screen; for LFC: log-fold change of sgRNA, surviving cells after co-culture vs baseline; for LFC / treat mean: MAGeCK; for treat mean: sgRNA abundance in surviving Daudi-Cas9 KO cells after 24 hours Vγ9Vδ2 T cell co-culture with zoledronate; for high_in_treatment: sgRNA enriched (TRUE) or depleted (FALSE) after T cell co-culture

| Substance | score | LFC | treat mean | high_in_treatment |
| --- | --- | --- | --- | --- |
| AARS2_ATCCGCCTACCCCGCTCCA: library sgRNA targeting AARS2 (listed as DNA, chemistry not fully specified) | 6.7194 | −4.9928 | 99.765 | FALSE |
| ABCF1_AGCATCTCCGCTCATGGCA: library sgRNA targeting ABCF1 (listed as DNA, chemistry not fully specified) | 5.9741 | −2.7126 | 504.57 | FALSE |
| ACACA_GTTAGAGACGCTATTCCGC: library sgRNA targeting ACACA (listed as DNA, chemistry not fully specified) | 7.4534 | −5.2135 | 104.65 | FALSE |
| ACAT2_CAAGTGAGTAGAGAAGATC: library sgRNA targeting ACAT2 (listed as DNA, chemistry not fully specified) | 6.1049 | 1.9893 | 1085.8 | TRUE |
| ACAT2_CAGTCCAGTCAATAGGGAT: library sgRNA targeting ACAT2 (listed as DNA, chemistry not fully specified) | 12.759 | 2.0827 | 4335.4 | TRUE |
| ALCAM_GTGTGCATGCTAGTAACTG: library sgRNA targeting ALCAM (listed as DNA, chemistry not fully specified) | 6.8519 | 1.5404 | 2462.2 | TRUE |
| ALG12_TGCGATCACCACTGGCCCG: library sgRNA targeting ALG12 (listed as DNA, chemistry not fully specified) | 6.0622 | −3.0699 | 374.84 | FALSE |
| ARL14EPL_TTAATAGCAACAAATAGAG: library sgRNA targeting ARL14EPL (listed as DNA, chemistry not fully specified) | 7.215 | 3.9422 | 227.01 | TRUE |
| BCCIP_AATCTCTTACTGAAGCTGC: library sgRNA targeting BCCIP (listed as DNA, chemistry not fully specified) | 6.3357 | −5.3797 | 64.834 | FALSE |
| BLQC1S1_ACCAAAGCTTCTGTCAGGC: library sgRNA targeting BLQC-1S1 (listed as DNA, chemistry not fully specified) | 6.0173 | −1.8638 | 1264.6 | FALSE |
| BTN2A1_AGCCCCTCATTTCAATGAG: library sgRNA targeting BTN2A1 (listed as DNA, chemistry not fully specified) | 7.0382 | 1.7442 | 1965.3 | TRUE |
| BTN2A1_ATGAGGGGCCATGAAGACG: library sgRNA targeting BTN2A1 (listed as DNA, chemistry not fully specified) | 7.3174 | 2.3876 | 1007.3 | TRUE |
| BTN2A1_TCTCCATGCCTGATGCAGA: library sgRNA targeting BTN2A1 (listed as DNA, chemistry not fully specified) | 11.104 | 1.6551 | 5566.5 | TRUE |
| BTN2A1_TCTTGGAAGTAACAGCGGT: library sgRNA targeting BTN2A1 (listed as DNA, chemistry not fully specified) | 18.758 | 2.4492 | 6366.6 | TRUE |
| BTN2A2_TGTGCACTGGTCTCAGGTA: library sgRNA targeting BTN2A2 (listed as DNA, chemistry not fully specified) | 13.201 | 2.0744 | 4689.1 | TRUE |
| BTN3A1_AGAGTTGAGAGAAATGGCA: library sgRNA targeting BTN3A1 (listed as DNA, chemistry not fully specified) | 18.173 | 2.7951 | 4251.1 | TRUE |
| BTN3A1_AGGGAACTTCTGATGGTAC: library sgRNA targeting BTN3A1 (listed as DNA, chemistry not fully specified) | 8.7326 | 1.7308 | 3095 | TRUE |
| BTN3A1_CAGGGCGGCGATCCACCTC: library sgRNA targeting BTN3A1 (listed as DNA, chemistry not fully specified) | 11.298 | 2.049 | 3523.7 | TRUE |

| Substance | score | LFC | treat mean | high_in_treatment |
| --- | --- | --- | --- | --- |
| BTN3A1_CTTCTTCAGGAGCGCCCAG: library sgRNA targeting BTN3A1 (listed as DNA, chemistry not fully specified) | 19.78 | 2.2076 | 9150.3 | TRUE |
| BTN3A1_GGGAGCCGGTTACTTCCTG: library sgRNA targeting BTN3A1 (listed as DNA, chemistry not fully specified) | 21.24 | 2.5697 | 7249.9 | TRUE |
| BTN3A1_GTTGATGTGAAGGGTTACA: library sgRNA targeting BTN3A1 (listed as DNA, chemistry not fully specified) | 9.8596 | 1.9969 | 2842.7 | TRUE |
| BTN3A1_TGCTGCTTCTTGGGGGAGC: library sgRNA targeting BTN3A1 (listed as DNA, chemistry not fully specified) | 17.532 | 2.0651 | 8413.1 | TRUE |
| BTN3A2_ACGTCACAGCCTCTGACAG: library sgRNA targeting BTN3A2 (listed as DNA, chemistry not fully specified) | 17.862 | 2.2137 | 7396.6 | TRUE |
| BTN3A2_GCGGGATGGCATCACTGCA: library sgRNA targeting BTN3A2 (listed as DNA, chemistry not fully specified) | 15.831 | 2.3489 | 5012.6 | TRUE |
| CCDC82_AAGAGCTTGATAGTAACAA: library sgRNA targeting CCDC82 (listed as DNA, chemistry not fully specified) | 7.3303 | 4.8194 | 83.034 | TRUE |
| DKK1_CGCTAGTCCCACCCGCGGA: library sgRNA targeting DKK1 (as printed in the source, key not given here) | 6.0866 | 1.0785 | 4197.4 | TRUE |
| DNLZ_CAGCTCGTCTACACCTGCA: library sgRNA targeting DNLZ (as printed in the source, key not given here) | 6.2683 | −8.2244 | 6.7801 | FALSE |
| EEFSEC_TCACGCTGGTCGACTGCCC: library sgRNA targeting EEFSEC (listed as DNA, chemistry not fully specified) | 6.5622 | −8.5255 | 6.8247 | FALSE |
| EEFSEC_TCATCCGGACCATCATCGG: library sgRNA targeting EEFSEC (listed as DNA, chemistry not fully specified) | 6.18 | −4.9819 | 83.299 | FALSE |
| FBXW7_AGGTTTCATACACAGTCCA: library sgRNA targeting FBXW7 (as printed in the source, key not given here) | 7.629 | 1.4859 | 3314.5 | TRUE |
| FBXW7_TGAAGTCTCGTTGAAACTG: library sgRNA targeting FBXW7 (as printed in the source, key not given here) | 6.8093 | 1.4811 | 2652.5 | TRUE |
| FBXW7_TTCTTCCAACTGTCCTTGC: library sgRNA targeting FBXW7 (as printed in the source, key not given here) | 7.5154 | 1.1042 | 6114.5 | TRUE |
| FCRL2_ACTATTTCTGTAGTACCAA: library sgRNA targeting FCRL2 (listed as DNA, chemistry not fully specified) | 6.1577 | 2.9186 | 417.46 | TRUE |
| GGNBP2_GTATGGGAACTAATGTCGC: library sgRNA targeting GGNBP2 (listed as DNA, chemistry not fully specified) | 6.4369 | 1.4472 | 2491.2 | TRUE |
| GMPPB_GCCGTGAGCTACATGTCGC: library sgRNA targeting GMPPB (listed as DNA, chemistry not fully specified) | 6.4797 | −2.6559 | 627.87 | FALSE |
